Measured values from US9822078B2, “Quinoline compounds” (Oxford University Innovation Limited, priority 2014, dated 2017).

Key:
[1] = target: T1, Islet amyloid precursor polypeptide, IAPP (Homo sapiens, UniProt P10997); experiment: In vitro assembly assay (thioflavin T fluorescence, with or without air-water interface), IAPP; type: biochemical; settings: ratio of IC50 with air-water interface (+AWI) to IC50 without (−AWI), IAPP at 4 μM; for Ratio IAPP IC50 (μm) +AWI/−AWI elongation: elongation rate
T1 construct: Purified synthetic peptides corresponding to IAPP (Bachem, Weil am Rhein, Germany); purchased Bachem, Weil am Rhein, Germany; host or cells: synthetic peptide
T1 sequence (P10997 34-70 limits assumed): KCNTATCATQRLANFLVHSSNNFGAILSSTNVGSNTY
Protocol: (§1) The assay is based upon the altered fluorescent properties of the dye thioflavin T when it is intercalated into stacked beta-strand structures, which includes amyloid fibrils. The assay is carried out in multi-well plates in which the air-water interface (AWI) can be independently occluded at any time in the assay by the insertion in any well of a hydrophilic poly-methyl-methacrylate cylinder (Perspex). The cylinder consists of a rod of 6.6 mm in diameter and 6 mm in height with a hemispherical tip. This provides a close fit for the circular cross-section of the well, minimising residual air-water interface, and the hemispherical contour on the inserted end serves to ensure that no air bubbles are trapped on insertion.
(§2) The assay has a final volume of 100 μl and contains a buffered isotonic solution (Phosphate Buffered Saline pH 7.4), 32 μM Thioflavin T (ThT), an amyloidogenic precursor peptide (Islet amyloid precursor polypeptide, IAPP at 4 μM, or Abeta1-40 at 12 μM, final concentration) and added compounds at indicated concentrations (dissolved in dimethyl sulphoxide, DMSO) or DMSO alone. Purified synthetic peptides corresponding to IAPP (Bachem, Weil am Rhein, Germany) and Aβ1-40 (EZBiolab, Carmel, Ind., USA) were dissolved in DMSO, sonicated, and centrifuged for 1 hour at 15,000 g and 4° C. before use (to remove any pre-aggregated species).
(§3) The ThT fluorescence signal was measured at 1 minute intervals (excitation 450 nm, emission 480 nm) in a 96-well plate (black wall, clear bottom; Greiner Bio-One, Stonehouse, Gloucestershire, UK) without shaking at 37° C. on a Polarstar plate reader (BMG Labtech, Aylesbury, Buckinghamshire, UK).
(§4) Any compound or physical device (e.g., Perspex cylinder) used was introduced at the same time in test (containing IAPP) and control wells (buffer and ThT without IAPP). Control values (with or without compounds or physical device) were subtracted from test values. At least 3 independent assays, with every assay done in duplicate wells, were performed and analyzed with the 2-sample t test.
(§5) A more detailed description of the IAPP and Aβ thioflavin/cylinder assay is given in Jean et al (2012) Biophysical Journal 102 1154-11.
(§6) The kinetics parameters were calculated from the ThT data as follows; the elongation rate was calculated from the slope at the inflection point of the sigmoidal curve; the plateau height was calculated by averaging the highest curve values (minimum of five values) attained at the end of the experiment; and the lag phase was calculated from the intercept on the time axis of the line formed tangent to the inflection point. At least three independent assays were performed, with every assay performed in duplicate wells. Statistical analysis was performed with the two-sample t-test. Details of the method of calculation of lag phase, elongation rate and plateau height are described in Trigg et al (2013) Biochemical Journal 456 67-80.

Abeta1-40 = target: T2, Abeta1-40 (Homo sapiens, UniProt P05067); experiment: In vitro assembly assay (thioflavin T fluorescence), screen against Amyloid-beta (Aβ) peptides; type: biochemical; settings: Abeta1-40 at 12 μM
T2 construct: Abeta1-40 at 12 μM, final concentration; purchased EZBiolab, Carmel, Ind., USA; host or cells: synthetic peptide
T2 sequence (P05067 672-711 limits assumed): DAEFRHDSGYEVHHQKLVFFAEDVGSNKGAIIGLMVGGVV
Protocol: as §1, §2, §3, §4, §5, §6

C. elegans = experiment: in vivo C. elegans model

| SMILES | Ratio IAPP IC50 (μm) +AWI/−AWI elongation [1] | Ratio IAPP IC50 (μm) +AWI/−AWI Lag phase [1] | Active against Aβ (Abeta1-40) | activity in an in vivo C. elegans model (C. elegans) |
| --- | --- | --- | --- | --- |
| Cc1cc(C)c2ccc(/C=C/c3ccccc3N)nc2c1O [Compound 131] | 4 | 8 | – | – |
| Cc1cc(C)c2ccc(/C=C/c3ccccc3O)nc2c1O [Compound 214] | 3 | 32 | ✓ (rate) | showed activity |
| Cc1cc(C)c2ccc(/C=C/c3ccc(O)c(O)c3)nc2c1O [Compound 221] | 16 | 32 | – | – |
| Cc1cc(C)c2ccc(/C=C/c3ccccc3[N+](=O)[O-])nc2c1O [Compound 222] | 3 | 11 | – | – |
| Cc1cc(C)c2ccc(/C=C/c3ccccc3)nc2c1O [Compound 225] | 4 | 3 | – | – |
| Cc1cc(C)c2ccc(/C=C/c3ccc(Br)o3)nc2c1O [Compound 226] | 3 | 1 | – | – |
| Cc1cc(C)c2ccc(/C=C/c3cccc(O)c3)nc2c1O [Compound 227] | 31 | 32 | ✓ (rate) | – |
| Cc1cc(C)c2ccc(/C=C/c3ccccc3C#N)nc2c1O [Compound 229] | 32 | 32 | ✓ (rate) | – |
| Cc1cc(C)c2ccc(/C=C/c3cccc([N+](=O)[O-])c3)nc2c1O [Compound 234] | 21 | 21 | – | – |
| Cc1cc(C)c2ccc(/C=C/c3cc(C(=O)O)ccc3O)nc2c1O [Compound 236] | 11 | 8 | ✓ | showed activity |
| COc1cc(/C=C/c2ccc3c(C)cc(C)c(O)c3n2)ccc1O [Compound 238] | 4 | 32 | – | – |
| Cc1cc(C)c2ccc(/C=C/c3ccc(OC(F)(F)F)cc3)nc2c1O [Compound 239] | 32 | 11 | – | – |
| Cc1cc(C)c2ccc(/C=C/c3ccc4c(c3)OCO4)nc2c1O [Compound 241] | 11 | 3 | No | showed activity |
| Cc1cc(C)c2ccc(/C=C/C3CCCCC3)nc2c1O [Compound 245] | 32 | 32 | ✓ | – |
| Cc1cc(C)c2ccc(/C=C/c3cccnc3)nc2c1O [Compound 249] | 12 | 32 | ✓ | showed activity |
| Cc1cc(C)c2ccc(/C=C/c3cccc(C#N)c3)nc2c1O [Compound 251] | 21 | 21 | ✓ | showed activity |
| Cc1cc(C)c2ccc(/C=C/c3ccc(Br)cc3)nc2c1O [Compound 252] | 3 | 1 | – | – |
| Cc1cc(C)c2ccc(/C=C/c3cccnc3Cl)nc2c1O [Compound 311] | 1 | 4 | – | – |
| COc1ccc(/C=C/c2ccc3c(C)cc(C)c(O)c3n2)cn1 [Compound 312] | 1 | 2 | – | – |
| Cc1cc(C)c2ccc(/C=C/c3cccnc3N)nc2c1O [Compound 321] | >1 | 3 | – | – |
| Cc1ccc(/C=C/c2ccc3c(C)cc(C)c(O)c3n2)cn1 [Compound 322] | 1 | 4 | – | – |
| Cc1cc(C)c2ccc(/C=C/c3ccc(N4CCOCC4)nc3)nc2c1O [Compound 323] | 2.5 | 11 | – | – |
| Cc1cc(C)c2ccc(/C=C/c3ccc(N4CCNCC4)nc3)nc2c1O [Compound 324] | 4 | 21 | – | – |
| Cc1cc(C)c2ccc(/C=C/c3cccnc3N3CCNCC3)nc2c1O [Compound 325] | 5 | 1 | – | – |
| Cc1cc(C)c2ccc(/C=C/c3cccnc3C)nc2c1O [Compound 326] | 1 | 1 | – | – |
